In ChEMBL document CHEMBL4507327 (2021):
pIC50: −log10 of the molar value.

Columns and labels:
[1] = molecular target: GABA-A receptor; anion channel (Rattus norvegicus) (UniProt O09028+P15431+P18506+P18508+P19969+P20236+P23574+P23576+P28471+P28473+P30191+P62813+P63079+P63138+Q91ZM7+Q9ES14); experiment: Inhibition of GABAA, Muscimol, Central at 10 µM in the Eurofins-Panlabs radioligand binding assay (Eurofins_assay_226500); format: protein-complex assay; conditions: Compound concentration 10.0 uM
[2] = molecular target: ATP-sensitive inward rectifier potassium channel 11 (Cricetulus griseus) (UniProt A0A3L7HHE1); experiment: Inhibition of Potassium Channel [KATP] at 10 µM in the Eurofins-Panlabs radioligand binding assay (Eurofins_assay_265600); conditions: Cricetinae; Compound concentration 10.0 uM
ATP-sensitive inward rectifier potassium channel 11 (Cricetulus griseus), sequence (A0A3L7HHE1 as listed by the source): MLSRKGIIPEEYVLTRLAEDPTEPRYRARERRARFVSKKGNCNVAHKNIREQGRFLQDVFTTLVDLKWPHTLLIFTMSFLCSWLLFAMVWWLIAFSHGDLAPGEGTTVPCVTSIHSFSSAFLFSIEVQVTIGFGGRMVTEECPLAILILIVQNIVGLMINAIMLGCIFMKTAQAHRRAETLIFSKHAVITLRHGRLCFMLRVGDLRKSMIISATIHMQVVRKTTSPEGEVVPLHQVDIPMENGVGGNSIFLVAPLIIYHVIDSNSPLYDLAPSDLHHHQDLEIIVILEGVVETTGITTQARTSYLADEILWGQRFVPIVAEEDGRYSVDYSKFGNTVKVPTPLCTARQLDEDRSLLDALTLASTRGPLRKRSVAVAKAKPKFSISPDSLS

[3] = molecular target: T1, 5-hydroxytryptamine receptor 3A (Homo sapiens) (UniProt P46098); experiment: Inhibition of Serotonin (5-Hydroxytryptamine) 5-HT3 at 10 µM in the Eurofins-Panlabs radioligand binding assay (Eurofins_assay_271910); set-up: ligand concentration 0.69 nM; conditions: Compound concentration 10.0 uM
T1 sequence (whole entry): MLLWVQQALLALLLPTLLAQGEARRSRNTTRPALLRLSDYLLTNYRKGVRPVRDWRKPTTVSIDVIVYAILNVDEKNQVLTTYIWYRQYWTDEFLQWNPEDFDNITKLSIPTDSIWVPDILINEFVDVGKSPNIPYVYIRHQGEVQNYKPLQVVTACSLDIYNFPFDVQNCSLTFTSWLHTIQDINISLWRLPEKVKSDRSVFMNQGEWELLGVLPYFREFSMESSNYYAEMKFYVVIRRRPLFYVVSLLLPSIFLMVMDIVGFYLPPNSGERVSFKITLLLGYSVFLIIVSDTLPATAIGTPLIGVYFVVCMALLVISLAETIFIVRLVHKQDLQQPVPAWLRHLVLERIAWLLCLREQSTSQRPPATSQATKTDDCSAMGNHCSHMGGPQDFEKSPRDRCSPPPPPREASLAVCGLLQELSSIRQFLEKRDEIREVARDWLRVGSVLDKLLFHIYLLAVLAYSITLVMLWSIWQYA

[4] = molecular target: Bone morphogenetic protein receptor type-1B (Homo sapiens, UniProt O00238); experiment: BMPR1B(BM1BLGF1) Takeda global kinase panel
[5] = molecular target: Cell division cycle 7-related protein kinase (Homo sapiens, UniProt O00311); experiment: CDC7(CDC7CGP1) Takeda global kinase panel
[6] = molecular target: Cyclin-dependent kinase 12 (Homo sapiens, UniProt Q9NYV4); experiment: CRK7(CD12PHS1) Takeda global kinase panel
Cyclin-dependent kinase 12, sequence (Q9NYV4 whole entry): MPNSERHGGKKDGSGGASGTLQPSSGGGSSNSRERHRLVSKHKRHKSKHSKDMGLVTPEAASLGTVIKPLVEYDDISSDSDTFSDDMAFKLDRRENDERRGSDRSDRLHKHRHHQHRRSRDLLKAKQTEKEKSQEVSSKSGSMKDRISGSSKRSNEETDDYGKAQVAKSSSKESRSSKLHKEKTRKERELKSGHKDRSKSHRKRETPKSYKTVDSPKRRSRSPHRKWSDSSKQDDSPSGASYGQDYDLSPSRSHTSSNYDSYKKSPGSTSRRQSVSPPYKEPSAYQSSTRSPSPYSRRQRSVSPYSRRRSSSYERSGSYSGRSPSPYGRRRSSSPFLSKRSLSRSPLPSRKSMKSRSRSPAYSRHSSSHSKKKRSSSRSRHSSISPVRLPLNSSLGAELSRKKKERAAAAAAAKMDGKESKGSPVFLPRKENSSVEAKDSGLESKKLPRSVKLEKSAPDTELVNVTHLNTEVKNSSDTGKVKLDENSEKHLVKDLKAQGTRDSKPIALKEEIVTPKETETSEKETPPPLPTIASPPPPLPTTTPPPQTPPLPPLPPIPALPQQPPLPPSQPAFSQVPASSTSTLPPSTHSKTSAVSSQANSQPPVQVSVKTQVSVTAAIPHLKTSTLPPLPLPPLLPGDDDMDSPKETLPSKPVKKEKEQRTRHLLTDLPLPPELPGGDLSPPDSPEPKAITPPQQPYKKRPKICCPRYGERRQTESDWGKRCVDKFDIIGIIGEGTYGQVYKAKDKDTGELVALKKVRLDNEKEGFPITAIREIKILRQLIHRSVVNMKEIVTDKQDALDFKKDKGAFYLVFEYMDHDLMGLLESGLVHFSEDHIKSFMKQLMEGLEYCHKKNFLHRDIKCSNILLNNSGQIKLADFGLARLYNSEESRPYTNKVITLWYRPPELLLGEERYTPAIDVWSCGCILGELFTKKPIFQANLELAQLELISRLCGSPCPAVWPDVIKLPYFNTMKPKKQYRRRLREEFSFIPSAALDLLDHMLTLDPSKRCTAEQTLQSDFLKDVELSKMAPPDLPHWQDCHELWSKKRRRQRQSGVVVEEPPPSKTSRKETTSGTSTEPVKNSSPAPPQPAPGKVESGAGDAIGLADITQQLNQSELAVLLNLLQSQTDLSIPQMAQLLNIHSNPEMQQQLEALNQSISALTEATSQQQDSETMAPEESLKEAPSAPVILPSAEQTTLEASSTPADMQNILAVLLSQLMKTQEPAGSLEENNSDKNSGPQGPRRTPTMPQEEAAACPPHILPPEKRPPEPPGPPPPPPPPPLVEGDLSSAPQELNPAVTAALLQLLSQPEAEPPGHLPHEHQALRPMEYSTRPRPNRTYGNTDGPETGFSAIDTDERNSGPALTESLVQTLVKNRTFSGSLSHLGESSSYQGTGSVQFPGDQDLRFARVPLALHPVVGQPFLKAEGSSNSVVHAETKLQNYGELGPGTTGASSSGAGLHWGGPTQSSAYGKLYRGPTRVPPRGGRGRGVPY

[7] = molecular target: Cyclin-dependent kinase 3 (Homo sapiens, UniProt Q00526); experiment: CDK3(CDK3CGS1) Takeda global kinase panel
Cyclin-dependent kinase 3, sequence (Q00526 whole entry): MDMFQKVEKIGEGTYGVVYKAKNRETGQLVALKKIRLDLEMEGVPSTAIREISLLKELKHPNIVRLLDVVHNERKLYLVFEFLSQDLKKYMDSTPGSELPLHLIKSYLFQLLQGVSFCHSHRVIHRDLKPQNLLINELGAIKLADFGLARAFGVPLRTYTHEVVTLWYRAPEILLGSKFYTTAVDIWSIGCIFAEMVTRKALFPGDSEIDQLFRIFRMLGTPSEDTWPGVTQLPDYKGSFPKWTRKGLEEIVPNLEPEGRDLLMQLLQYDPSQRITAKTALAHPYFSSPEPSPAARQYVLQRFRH

[8] = molecular target: Cyclin-dependent kinase 8 (Homo sapiens, UniProt P49336); experiment: CDK8(CDK8CGS1) Takeda global kinase panel
[9] = molecular target: Serine/threonine-protein kinase Chk1 (Homo sapiens, UniProt O14757); experiment: CHK1(CHE1CGP1) Takeda global kinase panel
[10] = molecular target: Serine/threonine-protein kinase Chk2 (Homo sapiens, UniProt O96017); experiment: CHK2(CHE2LGY1) Takeda global kinase panel
[11] = molecular target: Casein kinase II subunit alpha (Homo sapiens, UniProt P68400); experiment: CK2alpha1(C2A1LGF1) Takeda global kinase panel
[12] = molecular target: Eukaryotic translation initiation factor 2-alpha kinase 3 (Homo sapiens, UniProt Q9NZJ5); experiment: PERK [PEK(EIK3CGQ1)] Takeda global kinase panel
Eukaryotic translation initiation factor 2-alpha kinase 3, sequence (Q9NZJ5 whole entry): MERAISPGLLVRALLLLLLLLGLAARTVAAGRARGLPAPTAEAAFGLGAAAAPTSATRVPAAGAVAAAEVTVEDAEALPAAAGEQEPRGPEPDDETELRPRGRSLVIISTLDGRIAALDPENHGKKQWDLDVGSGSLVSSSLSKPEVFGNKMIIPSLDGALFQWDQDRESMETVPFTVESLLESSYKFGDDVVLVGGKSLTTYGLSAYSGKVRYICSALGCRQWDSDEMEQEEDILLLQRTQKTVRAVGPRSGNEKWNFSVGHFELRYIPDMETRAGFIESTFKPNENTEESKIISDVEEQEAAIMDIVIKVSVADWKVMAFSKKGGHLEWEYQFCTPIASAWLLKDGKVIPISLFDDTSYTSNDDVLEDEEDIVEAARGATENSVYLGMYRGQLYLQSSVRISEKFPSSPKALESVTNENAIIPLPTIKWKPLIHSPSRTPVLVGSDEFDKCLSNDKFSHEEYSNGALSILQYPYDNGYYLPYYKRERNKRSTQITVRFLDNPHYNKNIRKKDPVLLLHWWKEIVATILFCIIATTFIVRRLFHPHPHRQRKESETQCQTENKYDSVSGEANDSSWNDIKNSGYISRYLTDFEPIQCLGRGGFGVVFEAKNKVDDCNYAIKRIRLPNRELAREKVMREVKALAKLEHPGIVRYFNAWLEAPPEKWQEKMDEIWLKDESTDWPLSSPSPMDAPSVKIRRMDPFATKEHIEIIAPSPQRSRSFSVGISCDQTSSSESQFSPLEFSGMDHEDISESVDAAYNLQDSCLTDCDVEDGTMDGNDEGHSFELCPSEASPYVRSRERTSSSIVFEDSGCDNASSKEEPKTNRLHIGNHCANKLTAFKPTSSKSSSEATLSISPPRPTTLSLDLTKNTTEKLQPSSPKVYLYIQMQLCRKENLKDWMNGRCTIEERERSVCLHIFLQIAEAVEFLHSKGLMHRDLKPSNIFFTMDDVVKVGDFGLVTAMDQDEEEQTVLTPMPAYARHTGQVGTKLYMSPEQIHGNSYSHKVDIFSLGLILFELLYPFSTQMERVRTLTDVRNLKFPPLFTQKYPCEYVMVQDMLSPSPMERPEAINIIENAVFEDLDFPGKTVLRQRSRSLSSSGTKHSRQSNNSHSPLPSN

Ephrin type-A receptor 4 = Ephrin type-A receptor 4 (Homo sapiens, UniProt P54764); experiment: EphA4(EPA4LGF1) Takeda global kinase panel
Ephrin type-B receptor 1 = Ephrin type-B receptor 1 (Homo sapiens, UniProt P54762); experiment: EphB1(EPB1LGY1) Takeda global kinase panel
[13] = molecular target: Fibroblast growth factor receptor 4 (Homo sapiens, UniProt P22455); experiment: FGFR4(FGF4LGF1) Takeda global kinase panel
Rhodopsin kinase GRK1 = Rhodopsin kinase GRK1 (Homo sapiens, UniProt Q15835); experiment: RHODK [GRK1(GRK1LGA1)] Takeda global kinase panel
Rhodopsin kinase GRK1, sequence (Q15835 whole entry): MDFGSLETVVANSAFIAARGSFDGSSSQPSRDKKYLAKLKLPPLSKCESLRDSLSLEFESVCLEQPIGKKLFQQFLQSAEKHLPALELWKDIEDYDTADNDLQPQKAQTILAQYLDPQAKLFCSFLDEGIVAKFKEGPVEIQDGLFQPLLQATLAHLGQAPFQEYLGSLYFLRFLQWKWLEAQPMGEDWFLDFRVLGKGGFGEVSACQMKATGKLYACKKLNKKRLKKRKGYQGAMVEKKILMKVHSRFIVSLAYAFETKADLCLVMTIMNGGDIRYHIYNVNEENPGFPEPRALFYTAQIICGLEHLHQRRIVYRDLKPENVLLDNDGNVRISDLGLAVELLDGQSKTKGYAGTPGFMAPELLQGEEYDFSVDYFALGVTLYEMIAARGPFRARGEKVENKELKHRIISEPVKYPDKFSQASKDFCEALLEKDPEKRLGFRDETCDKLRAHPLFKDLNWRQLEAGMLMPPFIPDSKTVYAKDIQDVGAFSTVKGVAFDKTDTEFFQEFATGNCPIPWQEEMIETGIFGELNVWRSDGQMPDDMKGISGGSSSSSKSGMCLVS

[14] = molecular target: G protein-coupled receptor kinase 4 (Homo sapiens, UniProt P32298); experiment: GRK4(GRK4LGRI) Takeda global kinase panel
G protein-coupled receptor kinase 4, sequence (P32298 whole entry): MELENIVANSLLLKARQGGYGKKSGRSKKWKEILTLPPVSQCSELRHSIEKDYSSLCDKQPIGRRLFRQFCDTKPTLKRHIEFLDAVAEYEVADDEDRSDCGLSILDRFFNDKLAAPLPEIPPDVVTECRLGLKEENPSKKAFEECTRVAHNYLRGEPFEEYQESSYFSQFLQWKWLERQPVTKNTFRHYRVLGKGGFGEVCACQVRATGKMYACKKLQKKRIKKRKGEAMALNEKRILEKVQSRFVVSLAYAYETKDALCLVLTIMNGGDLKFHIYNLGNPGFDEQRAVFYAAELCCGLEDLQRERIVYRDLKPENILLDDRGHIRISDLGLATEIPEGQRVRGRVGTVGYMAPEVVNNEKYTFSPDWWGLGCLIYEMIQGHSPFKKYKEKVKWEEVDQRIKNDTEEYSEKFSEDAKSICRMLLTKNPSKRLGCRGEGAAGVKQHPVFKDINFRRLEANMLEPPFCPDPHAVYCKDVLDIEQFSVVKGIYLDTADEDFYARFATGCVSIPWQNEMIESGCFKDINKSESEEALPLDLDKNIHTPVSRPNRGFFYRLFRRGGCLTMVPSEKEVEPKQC

[15] = molecular target: G protein-coupled receptor kinase 5 (Homo sapiens, UniProt P34947); experiment: GRK5(GRK5LGP1) Takeda global kinase panel
G protein-coupled receptor kinase 5, sequence (P34947 whole entry): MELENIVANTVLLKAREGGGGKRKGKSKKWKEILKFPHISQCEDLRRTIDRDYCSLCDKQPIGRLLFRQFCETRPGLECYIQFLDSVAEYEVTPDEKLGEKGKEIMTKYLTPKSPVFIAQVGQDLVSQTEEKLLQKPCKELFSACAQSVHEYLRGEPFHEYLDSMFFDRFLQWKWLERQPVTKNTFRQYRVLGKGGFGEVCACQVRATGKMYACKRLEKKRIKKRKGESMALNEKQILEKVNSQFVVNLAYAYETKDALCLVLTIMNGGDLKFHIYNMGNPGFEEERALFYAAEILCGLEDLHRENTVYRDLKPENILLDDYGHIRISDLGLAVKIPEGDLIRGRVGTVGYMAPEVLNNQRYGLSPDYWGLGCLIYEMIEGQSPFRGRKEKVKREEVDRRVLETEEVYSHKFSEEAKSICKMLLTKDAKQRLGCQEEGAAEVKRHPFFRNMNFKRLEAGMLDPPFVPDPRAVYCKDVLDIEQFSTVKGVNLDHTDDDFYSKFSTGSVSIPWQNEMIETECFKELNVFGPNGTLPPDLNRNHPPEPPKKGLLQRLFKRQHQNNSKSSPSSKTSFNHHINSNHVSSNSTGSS

[16] = molecular target: Interleukin-1 receptor-associated kinase 3 (Homo sapiens, UniProt Q9Y616); experiment: IRAK3(IRK3PFE1) Takeda global kinase panel
[17] = molecular target: Interleukin-1 receptor-associated kinase 4 (Homo sapiens, UniProt Q9NWZ3); experiment: IRAK4(IRK4LGF1) Takeda global kinase panel
[18] = molecular target: Tyrosine-protein kinase JAK3 (Homo sapiens, UniProt P52333); experiment: JAK3(JAK3LGRG) Takeda global kinase panel
[19] = molecular target: Dual specificity mitogen-activated protein kinase kinase 6 (Homo sapiens, UniProt P52564); experiment: MKK6 [MAP2K6(M2K6LGF1)] Takeda global kinase panel
[20] = molecular target: Mitogen-activated protein kinase kinase kinase 7 (Homo sapiens, UniProt O43318); experiment: TAK1(M3K7CHY1) Takeda global kinase panel
[21] = molecular target: Serine/threonine-protein kinase greatwall (Homo sapiens, UniProt Q96GX5); experiment: MASTL(MASLLGE1) Takeda global kinase panel
[22] = molecular target: Serine/threonine-protein kinase Nek5 (Homo sapiens, UniProt Q6P3R8); experiment: Nek5(NEK5LGRD) Takeda global kinase panel
[23] = molecular target: NUAK family SNF1-like kinase 2 (Homo sapiens, UniProt Q9H093); experiment: NuaK2(NUA2LHY1) Takeda global kinase panel
[24] = molecular target: Serine/threonine-protein kinase D1 (Homo sapiens, UniProt Q15139); experiment: PKD1(PRD1LHY1) Takeda global kinase panel
[25] = molecular target: Serine/threonine-protein kinase D3 (Homo sapiens, UniProt O94806); experiment: PKD3(PRD3LGG5) Takeda global kinase panel
[26] = molecular target: Ribosomal protein S6 kinase alpha-4 (Homo sapiens, UniProt O75676); experiment: MSK2(R6A4LGRJ) Takeda global kinase panel
[27] = molecular target: Serine/threonine-protein kinase SIK2 (Homo sapiens, UniProt Q9H0K1); experiment: QIK(SIK2LGY1) Takeda global kinase panel
[28] = molecular target: Serine/threonine-protein kinase 32A (Homo sapiens, UniProt Q8WU08); experiment: YANK1(S32APHY1) Takeda global kinase panel
[29] = molecular target: Sodium-dependent serotonin transporter (Homo sapiens) (UniProt P31645); conditions: Compound concentration 10.0 uM
[30] = molecular target: Beta-2 adrenergic receptor (Homo sapiens) (UniProt P07550); conditions: Compound concentration 10.0 uM
[31] = molecular target: 5-hydroxytryptamine receptor 2B (Homo sapiens) (UniProt P41595); conditions: Compound concentration 10.0 uM
[32] = molecular target: Tyrosine-protein kinase Yes (Homo sapiens, UniProt P07947); experiment: Yes(YES1LGF1) Takeda global kinase panel

Q: What does the source list for `CN1C(=O)[C@@H](N2CCc3cn(Cc4ccccc4)nc3C2=O)COc2ccccc21` [TP-030-1]?
A: inhibition [1]: -1%; inhibition [2]: 6%; inhibition [3]: 6%; pIC50 [4]: 6.00; pIC50 [5]: 6.00; pIC50 [6]: 6.00; pIC50 [7]: 6.00; pIC50 [8]: 6.00; pIC50 [9]: 6.00; pIC50 [10]: 6.00; pIC50 [11]: 6.00; pIC50 [12]: 6.00; pIC50 (Ephrin type-A receptor 4): 6.00; pIC50 (Ephrin type-B receptor 1): 6.00; pIC50 [13]: 6.00; pIC50 (Rhodopsin kinase GRK1): 6.00; pIC50 [14]: 6.00; pIC50 [15]: 6.00; pIC50 [16]: 6.00; pIC50 [17]: 6.00; pIC50 [18]: 6.00; pIC50 [19]: 6.00; pIC50 [20]: 6.00; pIC50 [21]: 6.00; pIC50 [22]: 6.00; pIC50 [23]: 6.00; pIC50 [24]: 6.00; pIC50 [25]: 6.00; pIC50 [26]: 6.00; pIC50 [27]: 6.00; pIC50 [28]: 6.00; inhibition [29]: 5.99%; inhibition [30]: -4%; inhibition [31]: 6%

Q: What does the source list for `CN1C(=O)[C@@H](N2CCc3cn(CC4CCS(=O)(=O)CC4)nc3C2=O)COc2ccccc21` [TP-030n]?
A: inhibition [1]: -7%; inhibition [2]: 5%; inhibition [3]: 16%; pIC50 [4]: 6.00; pIC50 [5]: 6.00; pIC50 [6]: 6.00; pIC50 [7]: 6.00; pIC50 [8]: 6.00; pIC50 [9]: 6.00; pIC50 [10]: 6.00; pIC50 [11]: 6.00; pIC50 [12]: 6.00; pIC50 (Ephrin type-A receptor 4): 6.00; pIC50 (Ephrin type-B receptor 1): 6.00; pIC50 [13]: 6.00; pIC50 (Rhodopsin kinase GRK1): 6.00; pIC50 [14]: 6.00; pIC50 [15]: 6.00; pIC50 [16]: 6.00; pIC50 [17]: 6.00; pIC50 [18]: 6.00; pIC50 [19]: 6.00; pIC50 [20]: 6.00; pIC50 [21]: 6.00; pIC50 [22]: 6.00; pIC50 [23]: 6.00; pIC50 [24]: 6.00; pIC50 [25]: 6.00; pIC50 [26]: 6.00; pIC50 [27]: 6.00; pIC50 [28]: 6.00; pIC50 [32]: 6.00; inhibition [30]: 4%; inhibition [31]: -2%
